Assay results reported in the Bradley open melting point set (2014).
Where “and” joins values, the source holds several entries; their conditions need not be identical. Identical values can stand only once.

Row | Compound | melting point
1 | Oc1cccc2[nH]nnc12 [4-hydroxy-1h-benzotriazole] | 222 °C
2 | O=C(O)c1ccc(O)cc1 [4-hydroxybenzoic_acid] | 217 °C
3 | OCc1ccc(O)cc1 [4-hydroxybenzyl alcohol] | 118 °C
4 | N#CCc1ccc(O)cc1 [4-hydroxybenzyl_cyanide] | 71 °C
5 | Oc1cccc2[nH]ccc12 [4-hydroxyindole] | 98 °C
6 | NC(=O)Cc1ccc(O)cc1 [4-hydroxyphenylacetamide] | 174 °C
7 | N#CCc1ccc(O)cc1 [4-hydroxyphenylacetonitrile] | 69 °C
8 | Oc1ccc(I)cc1 [4-iodophenol] | 93 °C
9 | CC(C)Cc1ccc(C(C)C(=O)O)cc1 (stereo not drawn) [4-isobutyl-alpha-methylphenylacetic acid] | 77 °C
10 | CC(C)c1ccc(/C=C/[N+](=O)[O-])cc1 [4-isopropyl-beta-nitrostyrene] | 37 °C
11 | CC(C)c1ccc(O)cc1 [4-isopropylphenol] | 60 °C
12 | COc1ccc(B(O)O)c(C)c1 [4-methoxy-2-methylbenzeneboronic acid] | 191 °C
13 | CCCCCCCCOc1ccc(NC(=O)c2ccc(OC)cc2)cc1 [4-methoxy-N-[4-(octyloxy)phenyl]benzamide] | 153 °C
14 | COc1ccc(S(N)(=O)=O)cc1 [4-methoxybenzenesulfonamide] | 112 °C
15 | COc1ccc(C(=O)Cl)cc1 [4-methoxybenzoyl chloride] | 22 °C
16 | COc1ccc(-c2ccccc2)cc1 [4-methoxybiphenyl] | 91 °C
17 | COc1ccc(OCC(=O)O)cc1 [4-methoxyphenoxyacetic acid] | 111 °C
18 | COc1ccc(N=C=S)cc1 [4-methoxyphenyl isothiocyanate] | 19 °C
19 | COc1ccc(/C=C/c2ccccc2)cc1 [4-methoxystilbene] | 137 °C
20 | C=CCC(C)C [4-methyl-1-pentene] | -153 °C
21 | CC(C)CC=CB(O)O [4-methyl-1-pentenylboronic acid] | 101 °C
22 | Cc1ccc(N)c([N+](=O)[O-])c1 [4-methyl-2-nitroaniline] | 117 °C
23 | Cc1ccc(B(O)O)cc1[N+](=O)[O-] [4-methyl-3-nitrobenzeneboronic acid] | 250 °C
24 | Cc1ccc(CCl)cc1 [4-methylbenzyl chloride] | 5 °C

Row | Compound | melting point
25 | Cc1cc[n+]([O-])cc1C(N)=O [4-methylpyridine-3-carboxamide 1-oxide] | 280 °C
26 | C=Cc1ccc(C)cc1 [4-methylstyrene] | -34 °C
27 | CCCCc1ccc(B(O)O)cc1 [4-n-butylbenzeneboronic acid] | 105 °C
28 | CCCCCCCCCCc1ccc(-c2ccccc2)cc1 [4-n-decylbiphenyl] | 53 °C
29 | CCCCCCCCCc1ccc(O)cc1 [4-n-nonylphenol] | 45 °C
30 | O=[N+]([O-])c1ccc2c(c1)OCCOCCOCCOCCO2 [4-nitrobenzo-15-crown-5] | 94 °C
31 | O=C(O)c1ccc([N+](=O)[O-])cc1 [4-nitrobenzoic acid] [listing 1 of 2 here] | 242 °C
32 | O=[N+]([O-])c1ccc(CCl)cc1 [4-nitrobenzyl_chloride] | 73 °C
33 | O=C(O)Cc1ccc([N+](=O)[O-])cc1 [4-nitrophenylacetic acid] | 154 °C
34 | O=[N+]([O-])c1cc[n+]([O-])c2ccccc12 [4-nitroquinoline n-oxide] | 155 °C
35 | Cc1ccc([N+](=O)[O-])cc1 [4-nitrotoluene] [listing 1 of 2 here] | 52 °C
36 | Cc1ccc([N+](=O)[O-])cc1 [4-nitrotoluene] [listing 2 of 2 here] | 53 °C
37 | O=Cc1ccc(Oc2ccccc2)cc1 [4-phenoxybenzaldehyde] | 25 °C
38 | c1ccc(C23CCN(CC2)CC3)cc1 [4-phenylquinuclidine] | 124 °C
39 | CCCc1ccc(O)cc1 [4-propylphenol] | 22 °C
40 | OCc1ccncc1 [4-pyridinemethanol] | 54 °C
41 | CC(C)(C)C1CCC(=O)CC1 [4-tert-butylcyclohexanone] | 49 °C
42 | Cc1ccc(C(C)(C)C)cc1 [4-tert-butyltoluene] | -63 °C
43 | Oc1ccc(C(c2ccccc2)(c2ccccc2)c2ccccc2)cc1 [4-tritylphenol] | 281 °C
44 | c1cc2c3c(c1)ccc1cccc(c13)C2 [4H-Cyclopenta[def]phenanthrene] | 116 °C
45 | CC1(C)CC(=O)CC(=O)C1 [5,5-Dimethylcyclohexane-1,3-dione] | 148 °C
46 | CCC1(CC)C(=O)NC(=O)NC1=O [5,5-diethylbarbiturate] | 190 °C
47 | COc1ccc(-c2cc(=O)c3c(O)c(OC)c(O)cc3o2)cc1 [5,7-Dihydroxy-6-methoxy-2-(4-methoxyphenyl)-4H-chromen-4-one] | 225 °C

Second part, the compound after the results:

Row | melting point | Compound
48 | 114 °C | Cc1cc(C=O)cc(C)c1O [4-hydroxy-3,5-dimethylbenzaldehyde]
49 | 118 °C | O=Cc1ccc(O)cc1 [4-hydroxybenzaldehyde]
50 | 184 °C | O=C(/C=C/c1ccc(O)cc1)c1ccccc1 [4-hydroxychalcone]
51 | 63 °C | Nc1ccc(I)cc1 [4-iodoaniline]
52 | 114 °C | Ic1ccc(-c2ccccc2)cc1 [4-iodobiphenyl]
53 | 205 °C | COc1ccc(B(O)O)cc1 [4-methoxybenzeneboronic acid]
54 | 40 °C | COc1ccc(S(=O)(=O)Cl)cc1 [4-methoxybenzenesulfonyl chloride]
55 | 185 °C | COc1ccc(C(=O)O)cc1 [4-methoxybenzoic acid]
56 | 56 °C and 57 °C | COc1ccc(O)cc1 [4-methoxyphenol]
57 | 35 °C | Cc1ccc(S(=O)(=O)Cl)cc1[N+](=O)[O-] [4-methyl-3-nitrobenzenesulfonyl chloride]
58 | 250 °C | Cc1ccc(B(O)O)cc1 [4-methylbenzeneboronic acid]
59 | 55 °C | Cc1ccc(C(=O)c2ccccc2)cc1 [4-methylbenzophenone]
60 | 97 °C | CCCCCCCCCCOc1ccc(C(=O)O)cc1 [4-n-decyloxybenzoic acid]
61 | 10 °C | CCCCCc1ccc(-c2ccccc2)cc1 [4-n-pentylbiphenyl]
62 | 86 °C | O=[N+]([O-])c1ccc(C2OCCO2)cc1 [4-nitrobenzaldehyde ethylene glycol acetal]
63 | 240 °C | O=C(O)c1ccc([N+](=O)[O-])cc1 [4-nitrobenzoic acid] [listing 2 of 2 here]
64 | 163 °C | O=C(O)c1ccc([N+](=O)[O-])cc1C(=O)O [4-nitrophthalic acid]
65 | 119 °C | O=C(O)CCC(=O)c1cccs1 [4-oxo-4-(2-thienyl)butyric acid]
66 | 84 °C | Nc1ccc(Oc2ccccc2)cc1 [4-phenoxyaniline]
67 | 84 °C | Oc1ccc(Oc2ccccc2)cc1 [4-phenoxyphenol]
68 | 16 °C | CC(C)(C)c1ccc(N)cc1 [4-tert-butylaniline]
69 | 190 °C | C=Cc1ccc(B(O)O)cc1 [4-vinylbenzeneboronic acid]
70 | 322 °C | Nn1c(S)nnc1-c1ccc(Cl)cc1 [4H-1,2,4-triazole-3-thiol, 4-amino-5-(4-chlorophenyl)-]
71 | 62 °C | Oc1ccc2c(c1)CCCC2 [5,6,7,8-tetrahydro-2-naphthol]
